Key:
[1] = system: osteoblastic cell line MC3T3-E1; assay: Alkaline phosphatase activity in MC3T3-E1 after introduction of antisense or sense DNA to NQO2 mRNA; type: cell-based, mouse; details: MC3T3-E1, S-oligo DNA with FuGene 6, four days incubation, corrected for protein
Procedure: The alkaline phosphatase activity is represented by a relative activity (%) by taking a control value (with no DNA) as 100.
The mouse osteoblastic cell line, MC3T3-E1, in a MEMα medium containing 10% fetal calf serum and 100 μg/ml of kanamycin was inoculated on a 48-well plate at 1.4×10^4 cells per well and cultured overnight. To 100 μl of a serum-free αMEM were added 3 μl of FuGene 6 (Roche), 1.5 μg of the S-oligo DNA having the sequence of SEQ ID NO: 7 (antisense sequence to mouse NQO2 mRNA) and 1.5 μg of the S-oligo DNA having the sequence of SEQ ID NO: 8 (sense sequence to the mRNA) and the mixture was allowed to stand at room temperature for 15 minutes. To each well was added 22 μl of the mixture and incubated under 5% CO2 at 37° C. overnight. Thereafter, ascorbic acid was added at a final concentration of 50 μg/ml, and 10 mM of β-glycerophosphate was added. Incubation was performed for four days, and the activity of the alkaline phosphatase was measured according to Notoya et al. (Journal of Bone and Mineral Research 9: 395-400, 1994). The concentration of the protein in each cell homogenate was measured, and the activity values were corrected and shown in FIG. 1 by taking the activity obtained by the same procedure without addition of the DNA as 100%.

osteoblasts = assay: Alkaline phosphatase induction in the test using osteoblasts; type: cell-based; details: concentration of 1 μM
NQO2 = molecular target: T1, NQO2 (Mus musculus, UniProt Q9JI75); assay: Effect of compound on NQO2 activity (reduction of methyl red by GST-NQO2 fusion protein, absorbance at 436 nm); type: biochemical; details: 1 μM compound; 10 nM fusion protein, 30 μM methyl red, 25° C., pH 7.4; read-out: inhibitory action on NQO2 activity
T1 construct: made in house; host or cells: E. coli DH5α carrying pGEX-4T-2 with the insert
T1 sequence (Q9JI75 1-231): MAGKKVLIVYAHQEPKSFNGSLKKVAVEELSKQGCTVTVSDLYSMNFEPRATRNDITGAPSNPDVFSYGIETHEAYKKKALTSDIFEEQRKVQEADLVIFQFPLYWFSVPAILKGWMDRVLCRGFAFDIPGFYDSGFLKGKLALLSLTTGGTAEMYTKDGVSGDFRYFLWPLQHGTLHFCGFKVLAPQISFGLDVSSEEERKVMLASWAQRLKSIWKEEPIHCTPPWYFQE
Procedure: Entire RNA was prepared from a mouse osteoblastic cell line, MC3T3-E1, and cDNA was synthesized by using the oligo-dT primer. PCR was performed by using the cDNA as a template and two synthetic DNAs having the nucleotide sequences of SEQ ID NO: 5 and SEQ ID NO: 6, respectively, as primers to add the sequences recognized-by restriction enzymes. The resulting DNA fragment was cleaved with restriction enzymes BamHI and SalI and inserted into the BamHI-SalI cleavage site of plasmid pGEX-4T-2 (Amersham Pharmacia Biotech). The nucleotide sequence was confirmed, and then E. coli DH5α (GIBCO BRL) carrying the plasmid was cultured in an LB medium. According to the protocol recommended by Amersham Pharmacia Biotech, expression was induced by IPTG, and then purification was performed by using Glutathione-Sepharose (Amersham Pharmacia Biotech). From 2 L of the LB medium, 3.0 mg of the fusion protein was obtained.
Compound A having an osteogenesis-promoting action was examined for effects on the NQO2 activity by using the fusion protein obtained in the above (1). […] The decrease in absorbance at 436 nm was monitored to detect the reduction of methyl red. […]

Row | Molecule | alkaline phosphatase activity relative to cells without introduction of DNA (100%) [1] | alkaline phosphatase-inducing action (osteoblasts) | inhibition at 1 µM (NQO2) [%]
1 | antisense DNA: S-oligo DNA having the sequence of SEQ ID NO: 7 (antisense sequence to mouse NQO2 mRNA) (antisense CTGCCATGTTGGAGGAGATA; DNA, all phosphorothioate, methylation of C not given here) | significantly higher |  | 
2 | sense sequence DNA: S-oligo DNA having the sequence of SEQ ID NO: 8 (sense sequence to the mRNA) (sense TATCTCCTCCAACATGGCAG; DNA, all phosphorothioate, methylation of C not given here) [reference compound] | no difference was observed |  | 
3 | O=C1NC(=O)C(Cc2ccc(NC(=O)C3=CC(=O)C4C(O)=CC=CC4O3)cc2)S1 (stereo not shown) [Compound A] |  | alkaline phosphatase-inducing action | 38
